This is an account of results in the kinase profiling compilation of Christmann-Franck et al. (2016).

One may read the residual activity as the signal under treatment as a percentage of the control signal.

CSNK1D (human), sequence (P48730 whole entry, looked up): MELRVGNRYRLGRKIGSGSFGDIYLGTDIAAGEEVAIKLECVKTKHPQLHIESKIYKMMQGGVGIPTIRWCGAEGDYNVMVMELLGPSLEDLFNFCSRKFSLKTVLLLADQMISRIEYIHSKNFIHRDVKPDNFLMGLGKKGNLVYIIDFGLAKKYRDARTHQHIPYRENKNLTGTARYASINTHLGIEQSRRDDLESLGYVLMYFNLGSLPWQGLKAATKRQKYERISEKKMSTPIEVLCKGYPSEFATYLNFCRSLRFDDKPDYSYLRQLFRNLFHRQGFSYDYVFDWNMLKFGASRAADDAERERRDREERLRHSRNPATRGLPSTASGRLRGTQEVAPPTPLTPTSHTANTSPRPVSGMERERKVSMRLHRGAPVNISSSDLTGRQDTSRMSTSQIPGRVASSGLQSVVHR
TYRO3 (human), sequence (Q06418 whole entry, looked up): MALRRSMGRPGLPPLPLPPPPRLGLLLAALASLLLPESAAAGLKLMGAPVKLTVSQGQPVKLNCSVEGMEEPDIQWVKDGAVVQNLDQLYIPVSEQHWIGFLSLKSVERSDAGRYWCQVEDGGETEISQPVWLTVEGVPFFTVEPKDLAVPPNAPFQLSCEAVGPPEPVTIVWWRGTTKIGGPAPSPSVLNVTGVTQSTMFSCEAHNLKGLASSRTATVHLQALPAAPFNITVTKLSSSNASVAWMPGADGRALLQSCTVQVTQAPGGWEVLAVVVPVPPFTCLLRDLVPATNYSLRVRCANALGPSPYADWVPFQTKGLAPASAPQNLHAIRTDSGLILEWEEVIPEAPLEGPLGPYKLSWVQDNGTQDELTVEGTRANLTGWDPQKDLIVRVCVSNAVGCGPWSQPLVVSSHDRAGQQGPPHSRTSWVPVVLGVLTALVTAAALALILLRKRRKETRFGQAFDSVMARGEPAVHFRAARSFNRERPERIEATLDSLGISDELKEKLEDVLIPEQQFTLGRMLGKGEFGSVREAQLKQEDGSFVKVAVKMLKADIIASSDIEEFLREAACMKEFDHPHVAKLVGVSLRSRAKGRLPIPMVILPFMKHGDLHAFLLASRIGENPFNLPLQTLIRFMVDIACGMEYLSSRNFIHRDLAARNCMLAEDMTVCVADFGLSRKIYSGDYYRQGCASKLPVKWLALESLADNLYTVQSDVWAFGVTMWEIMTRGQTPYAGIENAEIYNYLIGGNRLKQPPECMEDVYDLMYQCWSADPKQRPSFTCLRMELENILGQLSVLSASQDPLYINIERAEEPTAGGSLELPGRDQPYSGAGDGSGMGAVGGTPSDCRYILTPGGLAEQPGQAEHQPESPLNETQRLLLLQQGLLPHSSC
IKBKB (human), sequence (O14920 whole entry, looked up): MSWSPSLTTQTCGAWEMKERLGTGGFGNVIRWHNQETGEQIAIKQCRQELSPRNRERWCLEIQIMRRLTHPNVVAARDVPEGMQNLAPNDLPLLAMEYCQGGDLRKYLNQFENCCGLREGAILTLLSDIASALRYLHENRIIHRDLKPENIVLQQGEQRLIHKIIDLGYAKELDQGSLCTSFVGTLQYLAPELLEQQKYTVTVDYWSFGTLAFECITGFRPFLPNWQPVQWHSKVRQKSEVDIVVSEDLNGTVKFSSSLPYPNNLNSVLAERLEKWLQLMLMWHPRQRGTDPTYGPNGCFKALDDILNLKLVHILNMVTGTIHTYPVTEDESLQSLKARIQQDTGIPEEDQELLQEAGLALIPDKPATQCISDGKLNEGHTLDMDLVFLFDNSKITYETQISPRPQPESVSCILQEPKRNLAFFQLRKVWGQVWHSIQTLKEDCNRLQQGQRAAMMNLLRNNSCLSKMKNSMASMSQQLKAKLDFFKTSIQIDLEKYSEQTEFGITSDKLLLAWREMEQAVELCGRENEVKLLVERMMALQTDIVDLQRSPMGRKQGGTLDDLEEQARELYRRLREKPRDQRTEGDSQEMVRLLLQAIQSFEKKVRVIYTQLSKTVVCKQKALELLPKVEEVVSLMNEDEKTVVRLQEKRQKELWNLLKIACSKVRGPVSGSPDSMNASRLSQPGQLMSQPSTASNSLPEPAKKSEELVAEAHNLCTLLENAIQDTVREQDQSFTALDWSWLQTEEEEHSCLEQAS

One test deals with MAPK13 (human) (UniProt O15264). Kind of test: radiometric filter-binding kinase assay, Kinase HotSpot. The note with it: compound 0.5 µM; ATP 10 µM.
As to `CCN(CC)C(=O)c1ccc(Nc2nc(OCC3CCCCC3)c3nc[nH]c3n2)cc1`, the residual activity was 95.3%.

For the molecule `O=C(Nc1cccc(Nc2nccc(Nc3cccc(C(F)(F)F)c3)n2)c1)C1CC1`, the residual activity is 99.6%.

The next test concerns the target MINK1 (human) (UniProt Q8N4C8). The description is as above. The note with it: compound 0.5 µM; ATP 10 µM.
In the case of `Cc1ccc(S(=O)(=O)/C=C/C#N)cc1`, the residual activity came out at 111%.

`CCN(CC)C(=O)c1ccc(Nc2nc(OCC3CCCCC3)c3nc[nH]c3n2)cc1`: the residual activity is 88.5%.

For the molecule `O=C(Nc1cccc(Nc2nccc(Nc3cccc(C(F)(F)F)c3)n2)c1)C1CC1`, the residual activity was 108%.

In the next test the target is STK11 (human) (UniProt Q15831). The description is as above. The note with it: compound 0.5 µM; ATP 10 µM.
Take `Cc1ccc(S(=O)(=O)/C=C/C#N)cc1`: the residual activity worked out at 91.1%.

Turning to `CCN(CC)C(=O)c1ccc(Nc2nc(OCC3CCCCC3)c3nc[nH]c3n2)cc1`, the residual activity came out at 85.2%.

Turning to `O=C(Nc1cccc(Nc2nccc(Nc3cccc(C(F)(F)F)c3)n2)c1)C1CC1`, the residual activity turned out to be 82.8%.

A further test deals with PRKCH (human) (UniProt P24723). Described as above. The following applies: compound 0.5 µM; ATP 10 µM.
Take `Cc1ccc(S(=O)(=O)/C=C/C#N)cc1`: the residual activity worked out at 106%.

As to `CCN(CC)C(=O)c1ccc(Nc2nc(OCC3CCCCC3)c3nc[nH]c3n2)cc1`, the residual activity came out at 86.7%.

For `O=C(Nc1cccc(Nc2nccc(Nc3cccc(C(F)(F)F)c3)n2)c1)C1CC1`, the residual activity was 98.6%.

For another test, the target named is PRKCG (human) (UniProt P05129). Described as above. The following applies: compound 0.5 µM; ATP 10 µM.
With `Cc1ccc(S(=O)(=O)/C=C/C#N)cc1`, the residual activity was determined as 92.9%.

Regarding `CCN(CC)C(=O)c1ccc(Nc2nc(OCC3CCCCC3)c3nc[nH]c3n2)cc1`, the residual activity is 94.5%.

In the case of `O=C(Nc1cccc(Nc2nccc(Nc3cccc(C(F)(F)F)c3)n2)c1)C1CC1`, the residual activity was 90.9%.

Another test addresses CSNK1D (human) (UniProt P48730). Described as above. The following applies: compound 0.5 µM; ATP 10 µM.
Turning to `Cc1ccc(S(=O)(=O)/C=C/C#N)cc1`, the residual activity was determined as 103%.

For `CCN(CC)C(=O)c1ccc(Nc2nc(OCC3CCCCC3)c3nc[nH]c3n2)cc1`, the residual activity came to 102%.

Take `O=C(Nc1cccc(Nc2nccc(Nc3cccc(C(F)(F)F)c3)n2)c1)C1CC1`: the residual activity came to 111%.

The target in a further test is CDK5 CDK5R1 p35 (human) (UniProt Q00535+Q15078). Described as above. The note with it: compound 0.5 µM; ATP 10 µM.
Regarding `Cc1ccc(S(=O)(=O)/C=C/C#N)cc1`, the residual activity was found to be 97%.

Turning to `CCN(CC)C(=O)c1ccc(Nc2nc(OCC3CCCCC3)c3nc[nH]c3n2)cc1`, the residual activity was found to be 77.1%.

For the molecule `O=C(Nc1cccc(Nc2nccc(Nc3cccc(C(F)(F)F)c3)n2)c1)C1CC1`, the residual activity amounted to 105%.

Another test addresses CDC42BPA (human) (UniProt Q5VT25). The test is described as above. The note with it: compound 0.5 µM; ATP 10 µM.
For the molecule `Cc1ccc(S(=O)(=O)/C=C/C#N)cc1`, the residual activity is 96.4%.

In the case of `CCN(CC)C(=O)c1ccc(Nc2nc(OCC3CCCCC3)c3nc[nH]c3n2)cc1`, the residual activity is 90.7%.

As for `O=C(Nc1cccc(Nc2nccc(Nc3cccc(C(F)(F)F)c3)n2)c1)C1CC1`, the residual activity came to 100%.

A further test concerns the target IKBKB (human) (UniProt O14920). The description is as above. The note with it: compound 0.5 µM; ATP 10 µM.
For the molecule `Cc1ccc(S(=O)(=O)/C=C/C#N)cc1`, the residual activity came out at 110%.

For the molecule `CCN(CC)C(=O)c1ccc(Nc2nc(OCC3CCCCC3)c3nc[nH]c3n2)cc1`, the residual activity was 97.3%.

For `O=C(Nc1cccc(Nc2nccc(Nc3cccc(C(F)(F)F)c3)n2)c1)C1CC1`, the residual activity was found to be 97.9%.

The target in another test is EPHB4 (human) (UniProt P54760). Described as above. The following applies: compound 0.5 µM; ATP 10 µM.
Regarding `Cc1ccc(S(=O)(=O)/C=C/C#N)cc1`, the residual activity turned out to be 102%.

Consider `CCN(CC)C(=O)c1ccc(Nc2nc(OCC3CCCCC3)c3nc[nH]c3n2)cc1`, for which the residual activity came out at 85%.

With `O=C(Nc1cccc(Nc2nccc(Nc3cccc(C(F)(F)F)c3)n2)c1)C1CC1`, the residual activity turned out to be 91.3%.

The target of the next test is ULK1 (human) (UniProt O75385). The description is as above. The note with it: compound 0.5 µM; ATP 10 µM.
ULK1 (human), sequence (O75385 whole entry, looked up): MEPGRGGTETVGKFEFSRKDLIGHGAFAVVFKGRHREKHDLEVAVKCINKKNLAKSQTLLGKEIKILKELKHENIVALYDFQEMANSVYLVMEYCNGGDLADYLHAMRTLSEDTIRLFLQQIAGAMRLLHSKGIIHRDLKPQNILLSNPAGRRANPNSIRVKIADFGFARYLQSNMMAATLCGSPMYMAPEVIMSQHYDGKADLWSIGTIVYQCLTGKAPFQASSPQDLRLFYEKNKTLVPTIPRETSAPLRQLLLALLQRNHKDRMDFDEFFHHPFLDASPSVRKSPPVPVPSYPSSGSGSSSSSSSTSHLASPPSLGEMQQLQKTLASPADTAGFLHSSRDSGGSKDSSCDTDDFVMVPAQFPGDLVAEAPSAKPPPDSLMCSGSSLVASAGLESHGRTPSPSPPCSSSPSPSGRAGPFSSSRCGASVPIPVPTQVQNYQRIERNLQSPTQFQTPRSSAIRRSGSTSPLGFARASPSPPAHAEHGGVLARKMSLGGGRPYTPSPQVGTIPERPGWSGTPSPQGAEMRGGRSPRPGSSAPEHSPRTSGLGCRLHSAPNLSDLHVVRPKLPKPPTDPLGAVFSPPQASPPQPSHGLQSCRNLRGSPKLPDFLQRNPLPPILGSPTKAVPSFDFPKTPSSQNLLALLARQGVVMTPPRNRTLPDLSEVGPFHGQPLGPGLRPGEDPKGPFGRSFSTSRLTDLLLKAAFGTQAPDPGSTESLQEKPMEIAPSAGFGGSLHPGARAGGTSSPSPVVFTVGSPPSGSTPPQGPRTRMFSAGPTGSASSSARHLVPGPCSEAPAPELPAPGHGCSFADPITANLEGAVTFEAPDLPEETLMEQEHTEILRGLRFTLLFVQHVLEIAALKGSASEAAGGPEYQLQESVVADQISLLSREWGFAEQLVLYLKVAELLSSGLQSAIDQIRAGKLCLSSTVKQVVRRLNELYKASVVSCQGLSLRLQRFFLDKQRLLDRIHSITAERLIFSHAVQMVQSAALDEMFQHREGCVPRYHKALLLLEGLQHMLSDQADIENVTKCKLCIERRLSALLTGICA
On to `Cc1ccc(S(=O)(=O)/C=C/C#N)cc1`, for which the residual activity was 102%.

Take `CCN(CC)C(=O)c1ccc(Nc2nc(OCC3CCCCC3)c3nc[nH]c3n2)cc1`: the residual activity is 77.7%.

`O=C(Nc1cccc(Nc2nccc(Nc3cccc(C(F)(F)F)c3)n2)c1)C1CC1`: the residual activity amounted to 105%.

The next test addresses HCK (human) (UniProt P08631). The test is described as above. The note with it: compound 0.5 µM; ATP 10 µM.
`Cc1ccc(S(=O)(=O)/C=C/C#N)cc1`: the residual activity turned out to be 100%.

For the molecule `CCN(CC)C(=O)c1ccc(Nc2nc(OCC3CCCCC3)c3nc[nH]c3n2)cc1`, the residual activity is 63.1%.

`O=C(Nc1cccc(Nc2nccc(Nc3cccc(C(F)(F)F)c3)n2)c1)C1CC1`: the residual activity was 102%.

A further test addresses PIM3 (human) (UniProt Q86V86). The test is described as above. The note with it: compound 0.5 µM; ATP 10 µM.
As for `Cc1ccc(S(=O)(=O)/C=C/C#N)cc1`, the residual activity was determined as 93.6%.

Turning to `CCN(CC)C(=O)c1ccc(Nc2nc(OCC3CCCCC3)c3nc[nH]c3n2)cc1`, the residual activity is 109%.

Turning to `O=C(Nc1cccc(Nc2nccc(Nc3cccc(C(F)(F)F)c3)n2)c1)C1CC1`, the residual activity came out at 106%.

The next test addresses MATK (human) (UniProt P42679). The description is as above. The note with it: compound 0.5 µM; ATP 10 µM.
As to `Cc1ccc(S(=O)(=O)/C=C/C#N)cc1`, the residual activity was 101%.

Turning to `CCN(CC)C(=O)c1ccc(Nc2nc(OCC3CCCCC3)c3nc[nH]c3n2)cc1`, the residual activity came to 95.6%.

In the case of `O=C(Nc1cccc(Nc2nccc(Nc3cccc(C(F)(F)F)c3)n2)c1)C1CC1`, the residual activity was 101%.

The target of another test is MERTK (human) (UniProt Q12866). The test is described as above. The note with it: compound 0.5 µM; ATP 10 µM.
MERTK (human), sequence (Q12866 whole entry, looked up): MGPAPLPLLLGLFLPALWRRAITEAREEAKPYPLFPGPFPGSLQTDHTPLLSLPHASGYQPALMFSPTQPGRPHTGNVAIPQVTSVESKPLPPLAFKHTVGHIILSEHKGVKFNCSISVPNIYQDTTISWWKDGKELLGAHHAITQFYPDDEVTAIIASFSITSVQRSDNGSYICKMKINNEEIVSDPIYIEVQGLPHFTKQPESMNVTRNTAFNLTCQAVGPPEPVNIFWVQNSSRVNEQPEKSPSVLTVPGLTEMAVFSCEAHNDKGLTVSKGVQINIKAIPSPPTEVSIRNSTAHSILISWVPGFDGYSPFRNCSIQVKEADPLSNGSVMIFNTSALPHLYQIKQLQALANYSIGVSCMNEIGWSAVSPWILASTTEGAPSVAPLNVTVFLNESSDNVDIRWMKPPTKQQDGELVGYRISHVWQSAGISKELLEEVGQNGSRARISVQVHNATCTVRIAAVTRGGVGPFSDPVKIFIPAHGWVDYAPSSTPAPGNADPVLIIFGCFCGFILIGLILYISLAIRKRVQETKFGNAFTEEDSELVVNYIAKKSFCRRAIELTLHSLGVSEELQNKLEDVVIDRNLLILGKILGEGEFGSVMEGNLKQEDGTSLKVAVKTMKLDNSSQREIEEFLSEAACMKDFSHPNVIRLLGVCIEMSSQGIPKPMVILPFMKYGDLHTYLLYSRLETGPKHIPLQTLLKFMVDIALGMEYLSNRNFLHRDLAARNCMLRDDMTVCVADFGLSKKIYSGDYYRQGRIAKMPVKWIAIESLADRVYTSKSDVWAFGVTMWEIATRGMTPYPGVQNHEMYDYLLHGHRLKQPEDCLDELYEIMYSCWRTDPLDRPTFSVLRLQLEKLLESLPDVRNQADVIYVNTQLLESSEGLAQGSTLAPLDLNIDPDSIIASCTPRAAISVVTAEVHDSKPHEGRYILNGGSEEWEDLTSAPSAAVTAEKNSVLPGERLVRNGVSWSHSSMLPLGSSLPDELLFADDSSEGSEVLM
Consider `Cc1ccc(S(=O)(=O)/C=C/C#N)cc1`, for which the residual activity came to 96.4%.

For the molecule `CCN(CC)C(=O)c1ccc(Nc2nc(OCC3CCCCC3)c3nc[nH]c3n2)cc1`, the residual activity is 71.6%.

With `O=C(Nc1cccc(Nc2nccc(Nc3cccc(C(F)(F)F)c3)n2)c1)C1CC1`, the residual activity was found to be 90.1%.

For the next test, the target named is MARK3 (human) (UniProt P27448). Described as above. The note with it: compound 0.5 µM; ATP 10 µM.
As for `Cc1ccc(S(=O)(=O)/C=C/C#N)cc1`, the residual activity was determined as 100%.

For the molecule `CCN(CC)C(=O)c1ccc(Nc2nc(OCC3CCCCC3)c3nc[nH]c3n2)cc1`, the residual activity was 85.4%.

Consider `O=C(Nc1cccc(Nc2nccc(Nc3cccc(C(F)(F)F)c3)n2)c1)C1CC1`, for which the residual activity came out at 102%.

Another test concerns the target TYRO3 (human) (UniProt Q06418). The test is described as above. The following applies: compound 0.5 µM; ATP 10 µM.
Regarding `Cc1ccc(S(=O)(=O)/C=C/C#N)cc1`, the residual activity was determined as 99.8%.

`CCN(CC)C(=O)c1ccc(Nc2nc(OCC3CCCCC3)c3nc[nH]c3n2)cc1`: the residual activity was 90.4%.

With `O=C(Nc1cccc(Nc2nccc(Nc3cccc(C(F)(F)F)c3)n2)c1)C1CC1`, the residual activity amounted to 93.8%.

In the next test the target is CSK (human) (UniProt P41240). The test is described as above. The following applies: compound 0.5 µM; ATP 10 µM.
CSK (human), sequence (P41240 whole entry, looked up): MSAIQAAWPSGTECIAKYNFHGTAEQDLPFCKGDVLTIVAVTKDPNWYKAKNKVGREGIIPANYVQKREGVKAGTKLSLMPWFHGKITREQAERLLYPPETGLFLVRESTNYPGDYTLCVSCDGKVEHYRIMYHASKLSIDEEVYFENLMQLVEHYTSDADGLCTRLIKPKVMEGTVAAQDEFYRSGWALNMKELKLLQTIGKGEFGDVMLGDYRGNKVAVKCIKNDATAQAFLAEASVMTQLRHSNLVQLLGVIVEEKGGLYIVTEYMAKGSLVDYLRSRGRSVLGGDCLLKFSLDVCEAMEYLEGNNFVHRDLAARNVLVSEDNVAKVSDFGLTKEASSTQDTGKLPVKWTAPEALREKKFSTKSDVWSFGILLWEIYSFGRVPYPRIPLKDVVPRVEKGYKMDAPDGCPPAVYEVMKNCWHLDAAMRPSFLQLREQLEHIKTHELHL
With `Cc1ccc(S(=O)(=O)/C=C/C#N)cc1`, the residual activity amounted to 97.2%.

For the molecule `CCN(CC)C(=O)c1ccc(Nc2nc(OCC3CCCCC3)c3nc[nH]c3n2)cc1`, the residual activity turned out to be 83.1%.

For `O=C(Nc1cccc(Nc2nccc(Nc3cccc(C(F)(F)F)c3)n2)c1)C1CC1`, the residual activity was 97.4%.

The target of a further test is MYLK2 (human) (UniProt Q9H1R3). The test is described as above. The following applies: compound 0.5 µM; ATP 10 µM.
Regarding `Cc1ccc(S(=O)(=O)/C=C/C#N)cc1`, the residual activity is 105%.

In the case of `CCN(CC)C(=O)c1ccc(Nc2nc(OCC3CCCCC3)c3nc[nH]c3n2)cc1`, the residual activity worked out at 94.7%.

With `O=C(Nc1cccc(Nc2nccc(Nc3cccc(C(F)(F)F)c3)n2)c1)C1CC1`, the residual activity was determined as 93.6%.

In another test the target is PRKCD (human) (UniProt Q05655). The test is described as above. The following applies: compound 0.5 µM; ATP 10 µM.
`Cc1ccc(S(=O)(=O)/C=C/C#N)cc1`: the residual activity stood at 95.6%.

Take `CCN(CC)C(=O)c1ccc(Nc2nc(OCC3CCCCC3)c3nc[nH]c3n2)cc1`: the residual activity came out at 76.7%.

Consider `O=C(Nc1cccc(Nc2nccc(Nc3cccc(C(F)(F)F)c3)n2)c1)C1CC1`, for which the residual activity is 87.9%.

Another test addresses MAP2K2 (human) (UniProt P36507). The description is as above. The note with it: compound 0.5 µM; ATP 10 µM.
In the case of `Cc1ccc(S(=O)(=O)/C=C/C#N)cc1`, the residual activity turned out to be 91%.

Consider `CCN(CC)C(=O)c1ccc(Nc2nc(OCC3CCCCC3)c3nc[nH]c3n2)cc1`, for which the residual activity was determined as 94%.

`O=C(Nc1cccc(Nc2nccc(Nc3cccc(C(F)(F)F)c3)n2)c1)C1CC1`: the residual activity came out at 89.2%.
